{"source": "paper PMC12512767", "about": "“Discovery of new aurone derivatives as submicromolar CK2 inhibitors” (Journal of Enzyme Inhibition and Medicinal Chemistry, 2025)"}
{"molecular_target": "T1, recombinant human protein kinase CK2 alpha subunit (Homo sapiens, UniProt P68400)", "T1 sequence (P68400 whole entry)": "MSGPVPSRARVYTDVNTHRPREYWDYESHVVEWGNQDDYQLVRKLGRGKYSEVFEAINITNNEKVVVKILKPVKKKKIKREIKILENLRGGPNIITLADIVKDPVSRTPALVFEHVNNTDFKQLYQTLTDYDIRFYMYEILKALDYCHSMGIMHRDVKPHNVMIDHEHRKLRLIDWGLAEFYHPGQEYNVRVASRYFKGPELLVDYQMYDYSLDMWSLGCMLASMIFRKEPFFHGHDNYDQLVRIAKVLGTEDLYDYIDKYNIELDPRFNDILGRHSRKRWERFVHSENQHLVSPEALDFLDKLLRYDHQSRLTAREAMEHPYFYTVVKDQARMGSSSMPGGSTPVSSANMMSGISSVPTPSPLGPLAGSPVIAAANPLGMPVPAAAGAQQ", "test": "Capillary electrophoresis (CE) CK2 assay", "assay_type": "biochemical", "settings": "ATP 100 µM, peptide substrate 100 µM; 30 °C, 40 min; triplicate; Hill fit", "method": "(§1) The study was conducted using recombinant human protein kinase CK2 alpha subunit, obtained using plasmid pZW6 (Addgene, USA, catalogue number 27086), ATP (Sigma-Aldrich, USA, catalogue number A2383) and peptide substrate RRRDDDSDDD (GenScript, USA, catalogue number RP10318). Tris(hydroxymethyl)aminomethane hydrochloride (Tris-HCl) (Sigma-Aldrich, USA, catalogue number 10812846001), KCl (Sigma-Aldrich, USA, catalogue number P3911) and MgCl2 (Sigma-Aldrich, USA, catalogue number 208337) were used to prepare the reaction buffer. Dimethyl sulfoxide (DMSO) (Sigma-Aldrich, USA, catalogue number 472301) was used as a solvent for the compounds. Luminescent assays were performed using Kinase-Glo® kit (Promega, USA, catalogue number V6711). Aurone derivatives were synthesised following the procedure[20] described earlier starting from the benzo[e]benzofuran-1-one intermediate obtained in a known manner. The structures of tested aurone derivatives are given in the Results section.\n(§2) The reaction mixture volume was 50 μl. The reaction buffer contained 2 mM Tris HCl, 5 mM KCl and 1 mM MgCl2, pH 7.5. The concentration of CK2 alpha subunit was 2 mg/l per sample in control and experimental samples. The reaction mixtures contained 0.5 μl of inhibitor solution in DMSO per sample (final inhibitor concentrations were different in luminescent and CE assays) or 0.5 μl of pure DMSO in control and calibration samples. The samples were incubated at 30 °C for 40 min.\nThe initial concentrations of ATP and peptide substrate were 100 µM. The reaction was stopped by adding 100 μl of 20 mM EDTA disodium salt. All IC50 studies were performed in triplicate. Mean conversion values for each concentration were used for construction of the conversion-versus-concentration curves and IC50 determination.\nThe conversion was determined by the formula: C=100∗P/P+N\nC is the conversion in percent, P is the peak area of the phosphorylated product, and N is the peak area of the substrate.\nInhibition was calculated using the formula: I=100∗ Co−Ce/Co\nI – inhibition in percent, Со – conversion in control sample, Се – conversion in experimental sample.\nFor the tested compounds, inhibition curves were plotted as a function of concentration and fitted using the Hill equation: y=x^n/k^n+x^n y – inhibition in percent, x – inhibitor concentration, k – IC50 value, n – Hill coefficient.\nInhibition curves were built using at least four data points, with additional concentrations tested for some compounds to refine the curve’s shape. The IC50 value was determined from the fitted curve as the concentration producing 50% inhibition.\nAll electrophoretic separations were performed with a capillary electrophoresis system Сapel-105M (Lumex). Fused silica (Lumex) of a total length of 75 cm (effective length 65 cm) with inner diameter 50 μm was used. Before use, fused silica was washed for 5 min with 0.1 M HCl solution, then 5 min with distilled water, then 5 min with 0.1 M NaOH solution, again for 5 min with distilled water and for 5 min with background electrolyte (BGE).\nA 150 mM orthophosphoric acid (pH 1.2) was used as BGE. Before electrophoretic separation, 350 μl of deionised water was added to the samples. Samples were introduced hydrodynamically at 900 mbar*s. The electrophoresis voltage was 25 kV. Electrophoretic separation was carried out in positive polarity. Detection conducted at a wavelength of 192 nm. Instrument control, data collection and integration were performed with Elforun (Lumex) software.", "units": {"IC50": "nM"}}
{"smiles": "O=C1C(=Cc2ccc(O)c([N+](=O)[O-])c2)Oc2c1ccc1ccccc21", "note": "[BFO22]", "IC50": 680}
{"smiles": "COc1cc(C=C2Oc3ccc4ccccc4c3C2=O)ccc1O", "note": "[BFO23]", "IC50": 130}
{"smiles": "O=C1C(=Cc2ccc(O)c(F)c2)Oc2ccc3ccccc3c21", "note": "[BFO24]", "IC50": 220}
{"smiles": "O=C1C(=Cc2ccc(O)c(Cl)c2)Oc2ccc3ccccc3c21", "note": "[BFO25]", "IC50": 3}
{"smiles": "COc1cc(C=C2Oc3ccc4ccccc4c3C2=O)cc([N+](=O)[O-])c1O", "note": "[BFO26]", "IC50": 130}
{"smiles": "O=C1C(=Cc2ccc(O)c(Br)c2)Oc2ccc3ccccc3c21", "note": "[BFO27]", "IC50": 13}
{"molecular_target": "T1, recombinant human protein kinase CK2 alpha subunit", "test": "Luminescent (Kinase-Glo) CK2 screening assay", "assay_type": "biochemical", "settings": "inhibitor 1 μM; ATP 10 µM, peptide substrate RRRDDDSDDD 200 µM; 30 °C, 40 min; triplicate; LI = luciferase inhibition (luminescence lower than control)", "method": "as §1, §2\nThe luminescent assay measured sample luminescence following the addition of the Kinase-Glo luciferase mixture, with the signal reflecting the remaining ATP content. The final ATP concentration indicates the extent of peptide phosphorylation: higher ATP levels correspond to lower peptide phosphorylation. This method was considered as a rapid and straightforward approach for screening a large number of compounds without quantitatively determining their activity.\nATP and peptide substrate were initially present at concentrations of 10 µM and 200 µM, respectively. Calibration samples, which lacked the enzyme, represented the initial ATP concentration. The inhibitor concentration in experimental samples was 1 µM. Measurements were performed using a LuMate 4400 microplate reader (Awareness Technology, USA). Luminescence was recorded after adding 50 µL of the Kinase-Glo luminescent mixture to each sample. In order to simplify the screening process, no signal–concentration calibration curve was constructed for precise ATP quantification. Instead, luminescence values of experimental and control samples were compared directly with those of enzyme-free calibration samples, which reflected the initial ATP level. The percentage of inhibition was determined by the formula: I=100∗(Me−Mc)/(Mo−Mc)\nI is the inhibition in percent, Me, Mc and Mo are the luminescence of the experimental, calibration and control samples, respectively. The experiments were performed in triplicate, after which the obtained values were averaged.\nThis effect may result from the inhibition of luciferase activity. The decrease in luminescence reflects not increased ATP consumption by CK2 during peptide phosphorylation, but rather reduced oxyluciferin formation – the luminescent product – caused by luciferase inhibition by the test compound. The manufacturer of the Kinase-Glo kit, as well as practical studies of protein kinases claim the possibility of this effect[23]^,[24]. […] Furthermore, some compounds with potential luciferase inhibitory activity could have produced false-negative results.\nThis deviation was most pronounced in samples with low absolute luminescence values (and consequently, low inhibition).", "units": {"I (%) (inhibition)": "%"}}
{"smiles": "O=C1C(=Cc2ccc(O)c([N+](=O)[O-])c2)Oc2c1ccc1ccccc21", "note": "[BFO22]", "I (%) (inhibition)": "80 ± 13"}
{"smiles": "COc1cc(C=C2Oc3ccc4ccccc4c3C2=O)ccc1O", "note": "[BFO23]", "I (%) (inhibition)": "85 ± 14"}
{"smiles": "O=C1C(=Cc2ccc(O)c(F)c2)Oc2ccc3ccccc3c21", "note": "[BFO24]", "I (%) (inhibition)": "95 ± 23"}
{"smiles": "O=C1C(=Cc2ccc(O)c(Cl)c2)Oc2ccc3ccccc3c21", "note": "[BFO25]", "I (%) (inhibition)": "88 ± 11"}
{"smiles": "COc1cc(C=C2Oc3ccc4ccccc4c3C2=O)cc([N+](=O)[O-])c1O", "note": "[BFO26]", "I (%) (inhibition)": "90 ± 7"}
{"smiles": "O=C1C(=Cc2ccc(O)c(Br)c2)Oc2ccc3ccccc3c21", "note": "[BFO27]", "I (%) (inhibition)": "86 ± 1"}
{"smiles": "O=C1/C(=C/c2ccc(O)c(F)c2)Oc2ccccc21", "note": "[Compound 1]", "I (%) (inhibition)": "36 ± 12"}
{"smiles": "COc1cccc(C=C2Oc3ccccc3C2=O)c1O", "note": "[Compound 2]", "I (%) (inhibition)": "<25"}
{"smiles": "O=C1/C(=C/c2ccccc2O)Oc2cc(O)ccc21", "note": "[Compound 3]", "I (%) (inhibition)": "<25"}
{"smiles": "O=C(O)c1ccc(C=C2Oc3cc(O)ccc3C2=O)cc1", "note": "[Compound 4]", "I (%) (inhibition)": "41 ± 9"}
{"smiles": "COc1cc(C=C2Oc3cc(O)ccc3C2=O)cc(Cl)c1O", "note": "[Compound 5]", "I (%) (inhibition)": "48 ± 21"}
{"smiles": "CCOc1cc(/C=C2\\Oc3cc(O)ccc3C2=O)ccc1O", "note": "[Compound 6]", "I (%) (inhibition)": "<25"}
{"smiles": "COc1ccc2c(c1)OC(=Cc1ccccc1O)C2=O", "note": "[Compound 7]", "I (%) (inhibition)": "<25"}
{"smiles": "COc1ccc2c(c1)OC(=Cc1cccc(O)c1)C2=O", "note": "[Compound 8]", "I (%) (inhibition)": "<25"}
{"smiles": "COc1ccc2c(c1)OC(=Cc1ccc(O)cc1)C2=O", "note": "[Compound 9]", "I (%) (inhibition)": "<25"}
{"smiles": "COc1ccc2c(c1)OC(=Cc1ccc(O)c(OC)c1)C2=O", "note": "[Compound 10]", "I (%) (inhibition)": "27 ± 19"}
{"smiles": "O=C(O)COc1ccc2c(c1)OC(=Cc1cccc(F)c1)C2=O", "note": "[Compound 11]", "I (%) (inhibition)": "<25"}
{"smiles": "O=C(O)COc1ccc2c(c1)OC(=Cc1ccc(C(=O)O)cc1)C2=O", "note": "[Compound 12]", "I (%) (inhibition)": "<25"}
{"smiles": "O=C1C(=Cc2ccccc2O)Oc2ccc(O)cc21", "note": "[Compound 13]", "I (%) (inhibition)": "<25"}
{"smiles": "Cc1cc(C=C2Oc3ccc(Br)cc3C2=O)ccc1O", "note": "[Compound 14]", "I (%) (inhibition)": "<25"}
{"smiles": "O=C1C(=Cc2ccc(O)c(F)c2)Oc2ccc(Br)cc21", "note": "[Compound 15]", "I (%) (inhibition)": "<25"}
{"smiles": "O=C1C(=Cc2ccc(O)c(F)c2)Oc2ccc(Cl)cc21", "note": "[Compound 16]", "I (%) (inhibition)": "<25"}
{"smiles": "Cc1cc(C=C2Oc3ccc(Cl)cc3C2=O)ccc1O", "note": "[Compound 17]", "I (%) (inhibition)": "<25"}
{"smiles": "Cc1cc(C=C2Oc3c(Cl)ccc(Cl)c3C2=O)ccc1O", "note": "[Compound 18]", "I (%) (inhibition)": "<25"}
{"smiles": "O=C1C(=Cc2ccc(O)c(F)c2)Oc2c(Cl)ccc(Cl)c21", "note": "[Compound 19]", "I (%) (inhibition)": "61 ± 15"}
{"smiles": "Cc1cc(/C=C2\\Oc3cc(C)c(Cl)c(C)c3C2=O)ccc1O", "note": "[Compound 20]", "I (%) (inhibition)": "<25"}
{"smiles": "Cc1cc2c(c(C)c1Cl)C(=O)C(=Cc1ccc(O)c(F)c1)O2", "note": "[Compound 21]", "I (%) (inhibition)": "<25"}
{"smiles": "O=C(O)c1ccc(C=C2Oc3c(ccc4ccccc34)C2=O)cc1", "note": "[Compound 22]", "I (%) (inhibition)": "<25"}
{"smiles": "O=C1C(=Cc2ccc(O)cc2)Oc2c1ccc1ccccc21", "note": "[Compound 23]", "I (%) (inhibition)": "<25"}
{"smiles": "COc1cc(C=C2Oc3c(ccc4ccccc34)C2=O)ccc1O", "note": "[Compound 28]", "I (%) (inhibition)": "<25"}
{"smiles": "O=C(O)c1cc(C=C2Oc3c(ccc4ccccc34)C2=O)ccc1O", "note": "[Compound 31]", "I (%) (inhibition)": "<25"}
{"smiles": "O=C1C(=Cc2ccc(O)c(Cl)c2)Oc2c1ccc1ccccc21", "note": "[Compound 32]", "I (%) (inhibition)": "68 ± 15"}
{"smiles": "O=C1C(=Cc2cc(Cl)c(O)c(Cl)c2)Oc2c1ccc1ccccc21", "note": "[Compound 33]", "I (%) (inhibition)": "<25"}
{"smiles": "O=C1C(=Cc2ccc(O)c(Br)c2)Oc2c1ccc1ccccc21", "note": "[Compound 34]", "I (%) (inhibition)": "<25"}
{"smiles": "O=C1C(=Cc2cc(Br)c(O)c(Br)c2)Oc2c1ccc1ccccc21", "note": "[Compound 35]", "I (%) (inhibition)": "39 ± 14"}
{"smiles": "O=C1C(=Cc2ccc(O)c(F)c2)Oc2c1ccc1ccccc21", "note": "[Compound 36]", "I (%) (inhibition)": "<25"}
{"smiles": "O=C1C(=Cc2ccc(O)cc2)Oc2ccc3ccccc3c21", "note": "[Compound 38]", "I (%) (inhibition)": "<25"}
{"smiles": "O=C(O)c1ccc(C=C2Oc3ccc4ccccc4c3C2=O)cc1", "note": "[Compound 39]", "I (%) (inhibition)": "69 ± 24"}
{"smiles": "O=C1C(=Cc2cccc(O)c2)Oc2ccc3ccccc3c21", "note": "[Compound 40]", "I (%) (inhibition)": "<25"}
{"smiles": "O=C1C(=Cc2ccc(O)c(O)c2)Oc2ccc3ccccc3c21", "note": "[Compound 41]", "I (%) (inhibition)": "<25"}
{"smiles": "Cc1cc(C=C2Oc3ccc4ccccc4c3C2=O)ccc1O", "note": "[Compound 45]", "I (%) (inhibition)": "<25"}
{"smiles": "O=C(O)c1cc(C=C2Oc3ccc4ccccc4c3C2=O)ccc1O", "note": "[Compound 48]", "I (%) (inhibition)": "32 ± 24"}
{"smiles": "O=C1C(=Cc2cc(Cl)c(O)c(Cl)c2)Oc2ccc3ccccc3c21", "note": "[Compound 51]", "I (%) (inhibition)": "78 ± 22"}
{"smiles": "COc1cc(C=C2Oc3ccc4ccccc4c3C2=O)cc(Cl)c1O", "note": "[Compound 52]", "I (%) (inhibition)": "46 ± 15"}
{"smiles": "O=C1/C(=C/c2cc(Br)c(O)c(Br)c2)Oc2ccc3ccccc3c21", "note": "[Compound 54]", "I (%) (inhibition)": "69 ± 1"}
